The results in this text go back to patent publication US7186714B2, “Imidazo[1,2-α]pyridine derivatives for the prophylaxis and treatment of herpes viral infections” (SmithKline Beecham Corporation, priority 2001, dated 2007).

As a reminder, the IC50 is the midpoint of a concentration-inhibition curve. Low readings indicate greater potency in that assay, high ones weaker potency in that assay.

The assay deals with HSV-1. The assay is described as follows: HSV infection of Vero 76 cells, viral DNA detected by hybridization capture with chemiluminescence. It is filed as cell-based. The note with it: Human alphaherpesvirus 1; HSV-1 in Vero 76 cells, MOI=0.001, incubated 40–48 hours with test compound. As to the method: Vero 76 cells were maintained in MEM with Earle's salts, L-glutamine, 8% FBS (Hyclone, A-1111-L) and 100 units/mL Penicillin-100 μg/mL Streptomycin. For assay conditions, FBS was reduced to 2%. Cells are seeded into 96-well tissue culture plates at a density of 5×10^4 cells/well after being incubated for 45 min at 37° C. in the presence of HSV-1 or HSV-2 (MOI=0.001). Test compounds are added to the wells and the plates are incubated at 37° C. for 40–48 hours. Cell lysates are prepared as follows: media was removed and replaced with 150 μL/well 0.2 N NaOH with 1% Igepal CA 630 or NP-40. Plates were incubated up to 14 days at room temperature in a humidified chamber to prevent evaporation.
For the detection probe, a gel-purified, digoxigenin-labeled, 710-bp PCR fragment of the HSV UL-15 sequence was utilized. PCR conditions included 0.5 μM primers, 180 μM dTTP, 20 μM dUTP-digoxigenin (Boehringer Mannheim 1558706), 200 μM each of dATP, dCTP, and dGTP, 1×PCR Buffer II (Perkin Elmer), 2.5 mM MgCl2, 0.025 units/μL of AmpliTaq Gold polymerase (Perkin Elmer), and 5 ng of gel-purified HSV DNA per 100 μL Extension conditions were 10 min at 95° C., followed by 30 cycles of 95° C. for 1 min, 55° C. for 30 sec, and 72° C. for 2 min. The amplification was completed with a 10-min incubation at 72° C. Primers were selected to amplify a 728 bp probe spanning a section of the HSV1 UL15 open reading frame (nucleotides 249–977). Single-stranded transcripts were purified with Promega M13 Wizard kits. The final product was mixed 1:1 with a mixture of 6 M GuSCN, 100 mM EDTA and 200 μg/mL herring sperm DNA and stored at 4° C.
The capture DNA plasmid (HSV UL13 region in pUC) was linearized by cutting with XbaI, denatured for 15 min at 95° C. and diluted immediately into Reacti-Bind DNA Coating Solution (Pierce, 17250, diluted 1:1 with TE buffer, pH 8) at 1 ng/μL 75 μL/well were added to Corning (#3922 or 9690) white 96-well plates and incubated at room temperature for at least 4 hrs before washing twice with 300 μL/well 0.2×SSC/0.05% Tween-20 (SSC/T buffer). The plates were then incubated overnight at room temperature with 150 μL/well 0.2 N NaOH, 1% IGEPAL and 10 μg/mL herring sperm DNA.
Twenty-seven (27) μL of cell lysate was combined with 45 μL of hybridization solution (final concentration: 3M GuSCN, 50 mM EDTA, 100 μg/ml salmon sperm DNA, 5×Denhardt's solution, 0.25×APE, and 5 ng of the digoxigenin-labeled detection probe). APE is 1.5 M NH4-acetate, 0.15 M ammonium phosphate monobasic, and 5 mM EDTA adjusted to pH 6.0. Mineral oil (50 μL) was added to prevent evaporation. The hybridization plates were incubated at 95° C. for 10 minutes to denature the DNA, then incubated at 42° C. overnight. The wells were washed 6× with 300 μL/well SSC/T buffer then incubated with 75 μL/well anti-digoxigenin-HRP-conjugated antibody (Boehringer Mannheim 1207733, 1:5000 in TE) for 30 min at room temperature. The wells were washed 6× with 300 μL/well with PBS/0.05% Tween-20 before 75 μL/well SuperSignal LBA substrate (Pierce) was added. The plates were incubated at room temperature for 30 minutes and chemiluminescence was measured in a Wallac Victor reader.
`O=[N+]([O-])c1cccc(-c2nc3c(N4CCOCC4)cccn3c2-c2ccnc(NC3CCCC3)n2)c1` [Example 31, N-Cyclopentyl-4-[8-(4-morpholinyl)-2-(3-nitrophenyl)imidazo[1,2-α]pyridin-3-yl]-2-pyrimidinamine] returned an IC50 of 1.2 µM. Consider `Nc1cccc(-c2nc3c(Cl)cccn3c2-c2ccnc(NC3CCCC3)n2)c1` [Example 32, 4-[2-(3-Aminophenyl)-8-chloroimidazo[1,2-α]pyridin-3-yl]-N-cyclopentyl-2-pyrimidinamine], for which half-maximal inhibition (IC50) required 3.3 µM. Regarding `Nc1cccc(-c2nc3c(NC4CCCC4)cccn3c2-c2ccnc(NC3CCCC3)n2)c1` [Example 33, 2-(3-Aminophenyl)-N-cyclopentyl-3-[2-(cyclopentylamino)-4-pyrimidinyl]imidazo[1,2-α]pyridin-8-amine], 1.6 µM corresponded to half-maximal inhibition (IC50). Compared with the last compound, the IC50 is about 2.1-fold lower. For `c1cc(NCC2CC2)cc(-c2nc3c(NC4CCCC4)cccn3c2-c2ccnc(NC3CCCC3)n2)c1` [Example 34, N-Cyclopentyl-3-[2-(cyclopentylamino)-4-pyrimidinyl]-2-{3-[(cyclopropylmethyl)amino]phenyl}imidazo[1,2-α]pyridin-8-amine] the value was 1.5 µM; for `c1cc(-c2nc3c(NC4CCCC4)cccn3c2-c2ccnc(NC3CCCC3)n2)cc(N(CC2CC2)CC2CC2)c1` [Example 35, 2-{3-[Bis(cyclopropylmethyl)amino]phenyl}-N-cyclopentyl-3-[2-(cyclopentylamino)-4-pyrimidinyl]imidazo[1,2-α]pyridin-8-amine], 1.46 µM; for `N#Cc1cccc(-c2nc3c(Cl)cccn3c2-c2ccnc(NC3CCCC3)n2)c1` [Example 36, 3-{8-Chloro-3-[2-(cyclopentylamino)-4-pyrimidinyl]imidazo[1,2-α]pyridin-2-yl}benzonitrile], 0.65 µM. Compound `Fc1ccc(-c2nc3c(Cl)cc(Cl)cn3c2-c2ccnc(NC3CCCC3)n2)cc1` [Example 38, N-Cyclopentyl-4-[6,8-dichloro-2-(4-fluorophenyl)imidazo[1,2-α]pyridin-3-yl]-2-pyrimidinamine] had an IC50 of 0.95 µM. Compound `Fc1ccc(-c2nc3c(NC4CCCC4)cc(Cl)cn3c2-c2ccnc(NC3CCCC3)n2)cc1` [Example 39, N-{4-[6-Chloro-8-(cyclopentylamino)-2-(4-fluorophenyl)imidazo[1,2-α]pyridin-3-yl]-2-pyrimidinyl}-N-cyclopentylamine] gave an IC50 of 1.4 µM. Consider `Fc1ccc(-c2nc3c(Br)cc(Br)cn3c2-c2ccnc(NC3CCCC3)n2)cc1` [Example 40, N-Cyclopentyl-4-[6,8-dibromo-2-(4-fluorophenyl)imidazo[1,2-a]pyridin-3-yl]-2-pyrimidinamine], for which the IC50 is 0.79 µM.

`Fc1ccc(-c2nc3c(NC4CCCC4)cc(Br)cn3c2-c2ccnc(NC3CCCC3)n2)cc1` [Example 41, N-{4-[6-Bromo-8-(cyclopentylamino)-2-(4-fluorophenyl)imidazo[1,2-a]pyridin-3-yl]-2-pyrimidinyl}-N-cyclopentylamine] gave an IC50 of 0.18 µM. `CCCCNc1cc(Br)cn2c(-c3ccnc(NC4CCCC4)n3)c(-c3ccc(F)cc3)nc12` [Example 42, 6-Bromo-N-butyl-3-[2-(cyclopentylamino)-4-pyrimidinyl]-2-(4-fluorophenyl)imidazo[1,2-a]pyridin-8-amine] showed an IC50 of 0.29 µM.

In the case of `Fc1ccc(-c2nc3c(N4CCOCC4)cc(N4CCOCC4)cn3c2-c2ccnc(NC3CCCC3)n2)cc1` [Example 43, N-Cyclopentyl-4-[2-(4-fluorophenyl)-6,8-di(4-morpholinyl)imidazo[1,2-a]pyridin-3-yl]-2-pyrimidinamine], the IC50 came to 0.47 µM. This IC50 is about 1.6-fold higher than that of the compound before. `Cc1cc(Br)cn2c(-c3ccnc(NC4CCCC4)n3)c(-c3ccc(F)cc3)nc12` [Example 44, N-{4-[6-Bromo-2-(4-fluorophenyl)-8-methylimidazo[1,2-a]pyridin-3-yl]-2-pyrimidinyl}-N-cyclopentylamine]: inhibition was half-maximal at 1.2 µM (IC50).
